Where two headings read alike, the source gives them in different places.
Key:
[1] = target: T1, baculovirus-expressed ALK (Homo sapiens, UniProt Q9UM73); experiment: ALK Kinase Assay (ELISA-type, time-resolved fluorescence); assay type: biochemical
T1 construct: host or cells: baculovirus expression system
Summary of the method: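 Plates coated with phospholipase C-γ substrate (10 μg/mL in TBS); reaction started with 30 ng/ml ALK and run 15 min at 37° C. Phosphorylated substrate detected with Eu-N1-labeled PT66 antibody. IC50 from sigmoidal variable-slope fit of percent inhibition vs log concentration.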

[2] = target: T2, c-Met (cytoplasmic domain) (Homo sapiens, UniProt P08581); experiment: c-Met Kinase Assay (same methods as for ALK, with modifications); assay type: biochemical
T2 construct: 10 ng/mL c-Met (cytoplasmic domain, Invitrogen Corporation #PV3143); purchased Invitrogen Corporation PV3143
T2 sequence (P08581 956-1390 limits assumed): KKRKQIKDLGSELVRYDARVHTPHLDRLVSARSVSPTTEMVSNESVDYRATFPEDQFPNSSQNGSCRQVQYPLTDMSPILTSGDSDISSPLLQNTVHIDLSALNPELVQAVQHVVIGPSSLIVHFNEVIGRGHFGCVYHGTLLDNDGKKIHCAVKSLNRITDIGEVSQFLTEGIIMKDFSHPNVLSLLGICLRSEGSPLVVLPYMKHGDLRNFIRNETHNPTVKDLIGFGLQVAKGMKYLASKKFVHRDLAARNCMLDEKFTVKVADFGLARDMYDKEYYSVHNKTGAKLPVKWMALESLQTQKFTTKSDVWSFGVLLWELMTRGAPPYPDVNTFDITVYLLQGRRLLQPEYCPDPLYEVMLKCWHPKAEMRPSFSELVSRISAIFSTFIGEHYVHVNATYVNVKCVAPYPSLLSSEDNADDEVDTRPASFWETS
Summary of the method: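 Plates were coated with phospholipase C-γ substrate (10 μg/mL) in TBS, and the reaction was started with 10 ng/mL c-Met cytoplasmic domain and run 15 min at 37 °C. Phosphoproduct was detected with Eu-N1-labelled PT66 antibody. IC50 came from a variable-slope sigmoidal fit of percent inhibition vs log concentration.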

[3] = 1 μM ATP (Km level), read-out: ALK Activity (ALK Kinase Inhibition, IC50)
[4] = 1 μM ATP (Km level), read-out: cMet Activity (c-Met Kinase Inhibition, IC50)
[5] = ALK kinase inhibition, 1 μM ATP (Km level), read-out: ALK Activity
[6] = c-Met kinase inhibition, 1 μM ATP (Km level), read-out: cMet Activity
[7] = 1 μM ATP (Km level), 30 ng/ml ALK, 37° C., 15 minutes, read-out: ALK Activity (ALK kinase inhibition, IC50 class)
[8] = 1 μM ATP (Km level), 10 ng/mL c-Met, read-out: cMet Activity (c-Met kinase inhibition, IC50 class)
[9] = ALK kinase inhibition, 1 μM ATP, read-out: ALK Activity
[10] = c-Met kinase inhibition, 1 μM ATP, read-out: cMet Activity

T1 sequence (Q9UM73 19-1620): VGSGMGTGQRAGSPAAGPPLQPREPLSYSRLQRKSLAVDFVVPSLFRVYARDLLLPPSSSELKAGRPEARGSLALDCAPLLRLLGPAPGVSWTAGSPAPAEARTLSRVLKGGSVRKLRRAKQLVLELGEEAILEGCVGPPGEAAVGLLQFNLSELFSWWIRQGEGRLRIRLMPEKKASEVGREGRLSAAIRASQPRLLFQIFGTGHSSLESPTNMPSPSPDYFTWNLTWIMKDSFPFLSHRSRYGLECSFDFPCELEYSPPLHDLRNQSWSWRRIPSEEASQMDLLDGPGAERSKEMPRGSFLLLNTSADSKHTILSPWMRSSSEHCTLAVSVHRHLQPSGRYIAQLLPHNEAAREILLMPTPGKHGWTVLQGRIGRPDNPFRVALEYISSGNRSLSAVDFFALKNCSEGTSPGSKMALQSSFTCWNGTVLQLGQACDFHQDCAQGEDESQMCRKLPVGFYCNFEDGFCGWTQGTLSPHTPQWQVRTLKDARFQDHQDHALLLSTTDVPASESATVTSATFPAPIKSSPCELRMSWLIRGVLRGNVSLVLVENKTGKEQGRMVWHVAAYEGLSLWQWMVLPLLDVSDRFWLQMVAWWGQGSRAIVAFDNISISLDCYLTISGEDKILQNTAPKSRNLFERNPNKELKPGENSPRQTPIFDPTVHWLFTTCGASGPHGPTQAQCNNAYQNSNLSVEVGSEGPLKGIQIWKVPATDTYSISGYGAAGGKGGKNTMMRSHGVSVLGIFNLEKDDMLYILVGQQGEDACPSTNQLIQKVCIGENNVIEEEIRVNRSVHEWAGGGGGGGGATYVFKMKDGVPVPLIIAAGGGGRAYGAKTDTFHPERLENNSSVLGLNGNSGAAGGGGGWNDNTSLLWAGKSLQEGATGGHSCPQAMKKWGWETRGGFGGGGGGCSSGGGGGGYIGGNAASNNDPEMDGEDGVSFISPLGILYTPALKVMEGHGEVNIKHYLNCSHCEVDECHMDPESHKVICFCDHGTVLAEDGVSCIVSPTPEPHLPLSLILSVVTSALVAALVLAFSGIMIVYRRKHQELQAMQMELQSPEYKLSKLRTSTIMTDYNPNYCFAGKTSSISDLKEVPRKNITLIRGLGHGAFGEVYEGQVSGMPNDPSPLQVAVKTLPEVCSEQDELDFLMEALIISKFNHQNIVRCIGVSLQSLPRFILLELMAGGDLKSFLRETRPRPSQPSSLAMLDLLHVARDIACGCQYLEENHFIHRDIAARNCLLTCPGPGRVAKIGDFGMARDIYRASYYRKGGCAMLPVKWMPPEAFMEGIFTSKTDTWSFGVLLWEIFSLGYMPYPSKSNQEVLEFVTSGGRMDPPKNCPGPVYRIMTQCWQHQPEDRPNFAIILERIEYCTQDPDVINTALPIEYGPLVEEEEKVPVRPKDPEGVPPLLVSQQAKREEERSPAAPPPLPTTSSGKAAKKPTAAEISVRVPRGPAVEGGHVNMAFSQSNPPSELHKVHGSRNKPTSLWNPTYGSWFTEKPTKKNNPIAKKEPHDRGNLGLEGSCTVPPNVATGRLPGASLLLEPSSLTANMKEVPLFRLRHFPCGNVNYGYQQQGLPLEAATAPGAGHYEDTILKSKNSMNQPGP

COc1cc2c(cc1Nc1ncc(Cl)c(Nc3ccccc3S(=O)(=O)N3CCN(C)CC3)n1)CCN(CC(=O)N(C)C)CC2 [Example 837, 2-(7-{5-Chloro-4-[2-(4-methyl-piperazine-1-sulfonyl)-phenylamino]-pyrimidin-2-ylamino}-8-methoxy-1,2,4,5-tetrahydro-benzo[d]azepin-3-yl)-N,N-dimethyl-acetamide]
IC50 [1, 3]: < 0.1 µM
IC50 [2, 4]: > 10 µM

CCN1C(=O)C(C)(C)CCc2c1ccc(Nc1ncc(Cl)c(Nc3ccccc3C(=O)NC)n1)c2OC [Example 144, 2-[5-Chloro-2-(1-ethyl-6-methoxy-3,3-dimethyl-2-oxo-2,3,4,5-tetrahydro-1H-benzo[b]azepin-7-ylamino)-pyrimidin-4-ylamino]-N-methyl-benzamide]
IC50 [1, 5]: < 0.1 µM
IC50 [2, 6]: 1 to 10 µM

COc1c(Nc2ncc(Cl)c(N[C@H]3[C@@H](C(N)=O)[C@@H]4C=C[C@H]3C4)n2)ccc2c1CCC(NCCO)CC2 (single isomer, unassigned) [Example 696]
IC50 [1, 3]: < 0.1 µM
IC50 [2, 4]: > 10 µM

COc1cc(N2CCOCC2)ccc1Nc1nc(Nc2ccc3c(c2)CCC(N2CCOCC2)CC3)ncc1Cl (stereo not drawn) [Example 865, 5-Chloro-N*4*-(2-methoxy-4-morpholin-4-yl-phenyl)-N*2*-(7-morpholin-4-yl-6,7,8,9-tetrahydro-5H-benzocyclohepten-2-yl)-pyrimidine-2,4-diamine]
IC50 [1, 3]: < 0.1 µM
IC50 [2, 4]: 1 to 10 µM

COc1cc2c(cc1Nc1ncc(Cl)c(Nc3cc(C(N)=O)ccc3OC)n1)CCN(CC(=O)N(C)C)CC2 [Example 1136, 3-[5-Chloro-2-(3-dimethylcarbamoylmethyl-8-methoxy-2,3,4,5-tetrahydro-1H-benzo[d]azepin-7-ylamino)-pyrimidin-4-ylamino]-4-methoxy-benzamide]
IC50 [1, 7]: 0.1 to 1 µM
IC50 [2, 8]: 1 to 10 µM

O=C1CCCc2cc(Nc3ncc(Cl)c(Nc4ccccc4-c4nc(C(F)(F)F)c[nH]4)n3)ccc2N1 [Example 1012, 7-{5-Chloro-4-[2-(4-trifluoromethyl-1H-imidazol-2-yl)-phenylamino]-pyrimidin-2-ylamino}-1,3,4,5-tetrahydro-benzo[b]azepin-2-one]
IC50 [1, 3]: 0.1 to 1 µM
IC50 [2, 4]: 0.1 to 1 µM

CNC(=O)c1cccc(F)c1Nc1nc(Nc2ccc3c(c2)-n2cccc2C(=O)CO3)ncc1Cl [Example 1268, 2-[5-Chloro-2-(4-oxo-4,5-dihydro-6-oxa-10b-aza-benz[e]azulen-9-ylamino)-pyrimidin-4-ylamino]-3-fluoro-N-methyl-benzamide]
IC50 [1, 7]: 0.1 to 1 µM
IC50 [2, 8]: < 0.1 µM

COc1cc2c(cc1Nc1ncc(Cl)c(N[C@@H]3CCCC[C@H]3NS(C)(=O)=O)n1)NC(=O)CNC2 [Example 1655, N-{(1R,2R)-2-[5-Chloro-2-(7-methoxy-2-oxo-2,3,4,5-tetrahydro-1H-benzo[e][1,4]diazepin-8-ylamino)-pyrimidin-4-ylamino]-cyclohexyl}-methanesulfonamide]
IC50 [1, 9]: < 0.1 µM
IC50 [2, 10]: > 10 µM

COc1cc2c(cc1Nc1ncc(Cl)c(NC3(CC(N)=O)CCCCC3)n1)CCN(CC(=O)N(C)C)CC2 [Example 847, 2-{1-[5-Chloro-2-(3-dimethylcarbamoylmethyl-8-methoxy-2,3,4,5-tetrahydro-1H-benzo[d]azepin-7-ylamino)-pyrimidin-4-ylamino]-cyclohexyl}-acetamide]
IC50 [1, 3]: 0.1 to 1 µM
IC50 [2, 4]: > 10 µM

CN(CCC#N)c1cccc(F)c1Nc1nc(Nc2ccc3c(c2)C(C)(C)CCC(=O)N3)ncc1Cl [Example 1266, 3-({2-[5-Chloro-2-(5,5-dimethyl-2-oxo-2,3,4,5-tetrahydro-1H-1-benzazepin-7-ylamino)-pyrimidin-4-ylamino]-3-fluoro-phenyl}-methyl-amino)-propionitrile]
IC50 [1, 7]: < 0.1 µM
IC50 [2, 8]: 1 to 10 µM

COCCOc1ccc(Nc2nc(Nc3cc4c(cc3OC)CCN(Cc3nccn3C)CC4)ncc2Cl)c(OC)c1 [Example 1175, 5-Chloro-N*4*-[2-methoxy-4-(2-methoxy-ethoxy)-phenyl]-N*2*-[8-methoxy-3-(1-methyl-1H-imidazol-2-ylmethyl)-2,3,4,5-tetrahydro-1H-benzo[d]azepin-7-yl]-pyrimidine-2,4-diamine]
IC50 [1, 7]: < 0.1 µM
IC50 [2, 8]: > 10 µM

COc1cc2c(cc1Nc1ncc(Cl)c(Nc3ccccc3S(=O)(=O)N(C)C)n1)CCN(CCN1CCOCC1)CC2 [Example 1522, 2-{5-Chloro-2-[8-methoxy-3-(2-morpholin-4-yl-ethyl)-2,3,4,5-tetrahydro-1H-3-benzazepin-7-ylamino]-pyrimidin-4-ylamino}-N,N-dimethyl-benzenesulfonamide]
IC50 [1, 9]: < 0.1 µM
IC50 [2, 10]: 1 to 10 µM

CCN1CCCC(C)(C)c2ccc(Nc3ncc(Cl)c(Nc4c(F)cccc4C(=O)NC)n3)cc21 [Example 1632, 2-[5-Chloro-2-(1-ethyl-5,5-dimethyl-2,3,4,5-tetrahydro-1H-benzo[b]azepin-8-ylamino)-pyrimidin-4-ylamino]-3-fluoro-N-methyl-benzamide]
IC50 [1, 9]: 0.1 to 1 µM
IC50 [2, 10]: 0.1 to 1 µM

CN1CCNCc2ccc(Nc3ncc(Cl)c(N[C@@H]4CCCC[C@H]4NS(C)(=O)=O)n3)cc21 [Example 475, N-{(1R,2R)-2-[5-Chloro-2-(1-methyl-2,3,4,5-tetrahydro-1H-benzo[e][1,4]diazepin-8-ylamino)-pyrimidin-4-ylamino]-cyclohexyl}-methanesulfonamide]
IC50 [1, 5]: < 0.1 µM
IC50 [2, 6]: 1 to 10 µM

COCCN1CCc2ccc(Nc3ncc(Cl)c(Nc4c(F)cc(F)cc4N4CCOCC4)n3)cc2CC1 [Example 1287, 5-Chloro-N(4)-(2,4-difluoro-6-morpholin-4-yl-phenyl)-N(2)-[3-(2-methoxy-ethyl)-2,3,4,5-tetrahydro-1H-3-benzazepin-7-yl]-pyrimidine-2,4-diamine]
IC50 [1, 7]: 0.1 to 1 µM
IC50 [2, 8]: 1 to 10 µM

COc1c(Nc2ncc(Cl)c(Nc3ccccc3C(=O)OC(C)C)n2)ccc2c1CCCC(N1CCOCC1)C2 (stereo not drawn) [Example 948, 2-[5-Chloro-2-(1-methoxy-6-morpholin-4-yl-6,7,8,9-tetrahydro-5H-benzocyclohepten-2-ylamino)-pyrimidin-4-ylamino]-benzoic acid isopropyl ester]
IC50 [1, 3]: 0.1 to 1 µM
IC50 [2, 4]: > 10 µM

COCCN1CCc2ccc(Nc3ncc(Cl)c(Nc4ccccc4-c4nccs4)n3)cc2CC1 [Example 979, 5-Chloro-N*2*-[3-(2-methoxy-ethyl)-2,3,4,5-tetrahydro-1H-benzo[d]azepin-7-yl]-N*4*-(2-thiazol-2-yl-phenyl)-pyrimidine-2,4-diamine]
IC50 [1, 3]: < 0.1 µM
IC50 [2, 4]: 0.1 to 1 µM

CCN1C(=O)CN(C(C)=O)Cc2ccc(Nc3ncc(Cl)c(Nc4ccccc4C(=O)NC)n3)cc21 [Example 1855, 2-[2-(4-Acetyl-1-ethyl-2-oxo-2,3,4,5-tetrahydro-1H-benzo[e][1,4]diazepin-8-ylamino)-5-chloro-pyrimidin-4-ylamino]-N-methyl-benzamide]
IC50 [1, 9]: 1 to 10 µM
IC50 [2, 10]: < 0.1 µM

CCN1CC(=O)N(C)c2cc(Nc3ncc(Cl)c(Nc4ccc(OC)cc4-n4cccn4)n3)c(OC)cc2C1 [Example 742, 8-[5-Chloro-4-(4-methoxy-2-pyrazol-1-yl-phenylamino)-pyrimidin-2-ylamino]-4-ethyl-7-methoxy-1-methyl-1,3,4,5-tetrahydro-benzo[e][1,4]diazepin-2-one]
IC50 [1, 3]: < 0.1 µM
IC50 [2, 4]: > 10 µM

COc1cc2c(cc1Nc1ncc(Cl)c(Nc3ccc(N4CCOCC4)cc3OC)n1)CCN(CC(N)=O)CC2 [Example 799, 2-{7-[5-Chloro-4-(2-methoxy-4-morpholin-4-yl-phenylamino)-pyrimidin-2-ylamino]-8-methoxy-1,2,4,5-tetrahydro-benzo[d]azepin-3-yl}-acetamide]
IC50 [1, 3]: < 0.1 µM
IC50 [2, 4]: > 10 µM

CNC(=O)c1ccccc1N(C)c1nc(Nc2ccc3c(c2)CN(C)C(=O)CC3)ncc1F [Example 1800, 2-{[5-Fluoro-2-(2-methyl-3-oxo-2,3,4,5-tetrahydro-1H-benzo[c]azepin-8-ylamino)-pyrimidin-4-yl]-methyl-amino}-N-methyl-benzamide]
IC50 [1, 9]: 1 to 10 µM
IC50 [2, 10]: < 0.1 µM

C#CCNC(=O)c1sccc1Nc1nc(Nc2ccc3c(c2)OCCCN3C(=O)OCCCN(C)C)ncc1Cl [Example 1429, 3-[5-Chloro-4-(2-prop-2-ynylcarbamoyl-thiophen-3-ylamino)-pyrimidin-2-ylamino]-7,8-dihydro-6H-5-oxa-9-aza-benzocycloheptene-9-carboxylic acid 3-dimethylamino-propyl ester]
IC50 [1, 7]: 0.1 to 1 µM
IC50 [2, 8]: 0.1 to 1 µM

COCCOc1ccc(Nc2nc(Nc3cc4c(cc3OC)CCN(CCS(C)(=O)=O)CC4)ncc2Cl)c(OC)c1 [Example 1168, 5-Chloro-N*2*-[3-(2-methanesulfonyl-ethyl)-8-methoxy-2,3,4,5-tetrahydro-1H-benzo[d]azepin-7-yl]-N*4*-[2-methoxy-4-(2-methoxy-ethoxy)-phenyl]-pyrimidine-2,4-diamine]
IC50 [1, 7]: < 0.1 µM
IC50 [2, 8]: > 10 µM

CCN1C(=O)CN(CCO)Cc2ccc(Nc3ncc(Cl)c(Nc4c(F)cccc4C(=O)NC)n3)cc21 [Example 1873, 2-{5-Chloro-2-[1-ethyl-4-(2-hydroxy-ethyl)-2-oxo-2,3,4,5-tetrahydro-1H-benzo[e][1,4]diazepin-8-ylamino]-pyrimidin-4-ylamino}-3-fluoro-N-methyl-benzamide]
IC50 [1, 9]: 0.1 to 1 µM
IC50 [2, 10]: < 0.1 µM

Source: patent US8148391B2 (Cephalon, Inc., priority 2006, dated 2012)
